Assay results taken from patent publication US5622976A, “Oxadiazole derivatives having acetylcholinesterase-inhibitory and muscarinic agonist activity” (priority 1991, dated 1997).

Biological target: T1, acetylcholinesterase (Rattus norvegicus, UniProt P37136)
T1 construct: obtained from rat's corpus striatum; from tissue; host or cells: rat corpus striatum
Assay: Inhibition of acetylcholinesterase (enzyme assay)
Type: biochemical
Conditions: acetylcholinesterase from rat's corpus striatum
Protocol: The ability to inhibit acetylcholinesterase was determined by the method (enzyme assay) described in Clinica Chimica Acta, 115 (1981) 163-170. The acetylcholinesterase used in this test was obtained from rat's corpus striatum.

T1 sequence (P37136 32-614): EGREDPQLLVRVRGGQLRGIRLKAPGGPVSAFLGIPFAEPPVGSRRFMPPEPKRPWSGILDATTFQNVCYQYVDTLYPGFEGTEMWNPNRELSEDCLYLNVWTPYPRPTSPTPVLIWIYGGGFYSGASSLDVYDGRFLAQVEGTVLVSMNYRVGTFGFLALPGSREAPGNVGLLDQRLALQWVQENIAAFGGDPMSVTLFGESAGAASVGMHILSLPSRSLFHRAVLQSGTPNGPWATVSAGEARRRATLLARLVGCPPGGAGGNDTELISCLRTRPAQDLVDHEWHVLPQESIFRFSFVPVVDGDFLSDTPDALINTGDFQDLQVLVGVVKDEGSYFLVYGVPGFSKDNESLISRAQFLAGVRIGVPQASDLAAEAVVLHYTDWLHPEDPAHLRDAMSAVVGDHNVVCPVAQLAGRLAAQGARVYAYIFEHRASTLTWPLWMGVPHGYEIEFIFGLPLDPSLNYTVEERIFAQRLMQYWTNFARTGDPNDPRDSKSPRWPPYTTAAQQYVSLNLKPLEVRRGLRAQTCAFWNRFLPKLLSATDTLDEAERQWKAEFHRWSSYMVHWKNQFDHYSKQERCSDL

| SMILES | IC50 [nM] |
| --- | --- |
| O=C(NCCC1CCN(Cc2ccccc2)CC1)c1noc(C2CN3CCC2CC3)n1 (centres unmarked) [(a)] | 8 |
| O=C(NCCC1CCN(Cc2ccccc2)CC1)c1noc(-c2ccc([N+](=O)[O-])cc2)n1 [(b)] | 1.7 |
